Measured values as given in patent US20240189275A1, “METHODS FOR TREATING NON-ALCOHOLIC STEATOHEPATITIS WITH A SCD-1 INHIBITOR” (Lipidio Pharmaceuticals, Inc., priority 2021, published 2024).

Tests used:
[1] = molecular target: T1, rat SCD-1 (Rattus norvegicus, UniProt P07308); experiment: Inhibition of SCD-1 activity in rat liver microsomes (13C-stearoyl-CoA to 13C-oleoyl-CoA, LC/MS/MS); format: biochemical; settings: FIG. 1, IC50 value not given
T1 construct: Rat liver microsomes (RLM, BiolVT); tissue BiolVT; host or cells: rat liver microsomes
T1 sequence (P07308 1-358): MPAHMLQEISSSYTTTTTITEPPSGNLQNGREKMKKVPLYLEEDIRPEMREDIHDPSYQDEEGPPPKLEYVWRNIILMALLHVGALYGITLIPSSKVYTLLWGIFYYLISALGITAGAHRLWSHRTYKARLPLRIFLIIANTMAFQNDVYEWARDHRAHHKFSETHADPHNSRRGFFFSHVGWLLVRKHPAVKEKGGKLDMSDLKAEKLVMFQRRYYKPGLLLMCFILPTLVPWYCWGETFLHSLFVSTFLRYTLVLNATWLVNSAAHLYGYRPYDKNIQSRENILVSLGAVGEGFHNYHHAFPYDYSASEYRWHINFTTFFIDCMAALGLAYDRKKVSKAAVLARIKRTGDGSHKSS
Procedure: (§1) The ability of the compound to inhibit isolated SCD-1 enzyme activity can be evaluated in rat and human microsomes as described below (Oncotarget (2018), 9, 3-20). The compound is added as various concentrations to the liver microsomes and incubated for 5 minutes with ^13C-labelled Stearoyl CoA, which is the substrate for SCD-1. The activity of SCD-1 is then determined by the conversion of ^13C-Steoryl CoA to ^13C-Oleoyl CoA using an LC/MS/MS method. The ability of the compound to inhibit SCD-1 activity is expressed as an IC50.
(§2) Compound 25 is dissolved in DMSO to prepare a 10 mM stock solution.
(§3) Rat liver microsomes (RLM, BiolVT) and human liver microsome (HLM, InVitroCYP™ H-class, Pool of 25 donors BiolVT) solutions are prepared by adding the microsomes to 100 mM sodium phosphate, pH 7.4, at a protein concentration of 1.00 mg/mL.
(§4) Compound 25 stock solution is then added to the RLM and HLM solution at an initial concentration of 0.2 μM for direct inhibition. Each LM/Inhibitor Solution is added to blank LM solution to give 8 concentrations prepared by a 3-fold serial dilution. These diluted LM/inhibitor solutions are then added to a reaction buffer containing 2 mM NADH, 120 μM Coenzyme A, 2 mM ATP, 2 mM DTT, and 10 mM MgCl2 in 100 mM sodium phosphate, pH 7.4.
(§5) A Stearoyl-^13Cis-CoA solution in 10% methanol in water is prepared at a final concentration of 3.00 mM. […]

[2] = molecular target: T2, human SCD-1 (Homo sapiens, UniProt O00767); experiment: Inhibition of SCD-1 activity in human liver microsomes (13C-stearoyl-CoA to 13C-oleoyl-CoA, LC/MS/MS); format: biochemical; settings: FIG. 1, IC50 value not given
T2 construct: human liver microsome (HLM, InVitroCYP™ H-class, Pool of 25 donors BiolVT); tissue BiolVT InVitroCYP™ H-class; host or cells: human liver microsomes, pool of 25 donors
T2 sequence (O00767 1-359): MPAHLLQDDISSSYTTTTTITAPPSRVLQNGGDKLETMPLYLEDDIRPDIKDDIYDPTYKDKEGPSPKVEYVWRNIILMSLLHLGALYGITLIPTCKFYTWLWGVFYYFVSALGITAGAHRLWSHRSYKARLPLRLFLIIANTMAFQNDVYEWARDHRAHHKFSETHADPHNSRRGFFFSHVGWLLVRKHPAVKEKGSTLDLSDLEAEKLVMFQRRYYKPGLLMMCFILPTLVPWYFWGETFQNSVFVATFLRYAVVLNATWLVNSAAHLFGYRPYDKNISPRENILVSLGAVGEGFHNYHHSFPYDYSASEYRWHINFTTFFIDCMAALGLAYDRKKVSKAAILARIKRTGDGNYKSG
Procedure: as §1, §2, §3, §4, §5

[3] = Body weight and body composition (EchoMRI) in GAN diet-induced, biopsy-confirmed mouse model of NASH; format: in vivo, mice; settings: 12 weeks
Procedure: (§6) The effects of topical treatment of Compound 25 to 10% of the skin for 12 weeks were assessed in a diet-induced and biopsy-confirmed mouse model of NASH described in the literature (World Journal of Gastroenterology (2019), 25(33), 4904-4920). In this model, NASH is induced by maintaining mice on a high fat-high fructose diet (the so-called GAN [Novel Gubra Amylin] diet) for 33 weeks prior to drug administration. […] This biopsy is then compared to a post-drug treatment biopsy to assess changes in NAFLD activity and Fibrosis Stage. Qualitative scoring is completed with quantitative immunohistochemistry to assess effects on hepatic steatosis, inflammation (Galectin-3), fibrosis (Collagen 1a1 and Picro-Sirius Red Staining) and stellate cell activation (α-SMA). RNASeq was also performed on terminal liver samples from mice treated with placebo gel and compound 25 gel to examine key candidate genes involved in extracellular matrix formation (ECM) and fibrogenesis. Parametric (ANOVA) and non-parametric (Fisher's or Chi Square) statistics were used to analyze the data as appropriate.
SCD-1 inhibitor compounds can be tested in vivo in a rodent diet-induced model of biopsy-confirmed NASH. In this experiment, the NASH phenotype is induced by maintaining mice upon a GAN diet for 33 weeks prior to drug administration (BMC Gastroenterology (2020), 20(1), 210; World Journal of Gastroenterology (2019), 25(33), 4904-4920). […] In addition to pre- and post-treatment histological analyses, metabolic assessments such as body weight, body composition, food intake and clinical chemistries are measured during and following the 12-week study dosing period. […]
(§7) Animals and Diet: The Danish Animal Experiments Inspectorate approved all experiments which were conducted using internationally accepted principles for the use of laboratory animals under the personal license #2013-15-2934-00784. […] Mice were weighed daily during the study and body composition was measured by non-invasive EchoMRI scanning using EchoMRI-900 (EchoMRI, Houston, TX).

[4] = test system: diet-induced and biopsy-confirmed mouse model of NASH; experiment: Liver histology (NAS, fibrosis stage, quantitative histomorphometry) in GAN diet-induced, biopsy-confirmed mouse model of NASH; format: in vivo, mice; settings: for number of mice with worsening (higher score) of Fibrosis Stage: placebo gel 7/16; for liver content (in mg) of α-SMA, antibody-stained sections / liver Galectin-3 content (in mg), antibody-stained sections / liver lipid content (hematoxylin and eosin-stained sections): week 12; for number of animals experiencing an improvement in NAS: topical, p<0.05 compared to placebo
Procedure: as §6
(§8) SCD-1 inhibitor compounds can be tested in vivo in a rodent diet-induced model of biopsy-confirmed NASH. In this experiment, the NASH phenotype is induced by maintaining mice upon a GAN diet for 33 weeks prior to drug administration (BMC Gastroenterology (2020), 20(1), 210; World Journal of Gastroenterology (2019), 25(33), 4904-4920). A biopsy is performed prior to drug treatment to eliminate any mice that have not developed the NASH phenotype and to mirror clinical trial design where liver biopsies prior to and at the end of treatment are compared. In addition to pre- and post-treatment histological analyses, metabolic assessments such as body weight, body composition, food intake and clinical chemistries are measured during and following the 12-week study dosing period.
(§9) Mice were dosed topically to 10% of the total BSA of the skin with either a placebo gel or a gel containing compound 25 (at a concentration of 0.05%, 0.25%, 0.75%, or 2.5%). (World Journal of Gastroenterology (2018), 24(2), 179-194).
(§10) Animals and Diet: The Danish Animal Experiments Inspectorate approved all experiments which were conducted using internationally accepted principles for the use of laboratory animals under the personal license #2013-15-2934-00784. B6.V-Lepob/JRj (ob/ob) mice (6 weeks old) were from Janvier Labs (Le Genest Saint Isle, France) and housed in a controlled environment (12h light/dark cycle, lights on at 3 AM, 21+2° C., humidity 50+10%). Each animal was identified by an implantable subcutaneous microchip (PetID Microchip, E-vet, Haderslev, Denmark). Mice had ad libitum access to tap water and the Gubra Amylin NASH diet [GAN diet; 40 kcal-% fat (of these 0% trans-fat and 46% saturated fatty acids by weight), 22% fructose, 10% sucrose, 2% cholesterol; D09100310, Research Diets]. Mice were maintained on the GAN diet for 33 weeks prior to study initiation to induce NASH and remained on the GAN diet during the 12 weeks of drug administration. Mice were weighed daily during the study and body composition was measured by non-invasive EchoMRI scanning using EchoMRI-900 (EchoMRI, Houston, TX).
Liver Biopsy: After 33 weeks of GAN diet feeding, mice were anesthetized with isoflurane (2%-3%, in 100% oxygen), a small abdominal incision in the midline was made, and the left lateral lobe of the liver was exposed. A cone-shaped wedge of liver tissue (50-100 mg) was excised from the distal part of the lobe. The cut surface of the liver was closed by electrosurgical bipolar coagulation using an electrosurgical unit (ERBE VIO® 100C, ERBE, Marietta, GA, United States). The liver was returned to the abdominal cavity, the abdominal wall was sutured and skin stapled. Carprofen (5 mg/kg, i.p.) was administered at the time of surgery and at post-operative day one and two. […]

[5] = test system: diet-induced and biopsy-confirmed mouse model of NASH; experiment: Terminal hepatic triglyceride content in mouse model of NASH; format: in vivo, mice; settings: 2.5% gel, week 12; p<0.001
Procedure: as §8, §9
as §7, with “TX). […]” for “TX).”

[6] = test system: diet-induced and biopsy-confirmed mouse model of NASH; experiment: Plasma ALT and AST in mouse model of NASH; format: in vivo, mice; settings: for plasma alanine transaminase (ALT) (units/L) / plasma aspartate transaminase (AST) (units/L): week 12
Procedure: as §8, §9, §10
Plasma Biochemistry Analysis: Blood samples are collected in heparinized tubes and plasma is separated and stored at −80° C. until analysis. Alanine aminotransferase and aspartate aminotransferase (FIG. 12) were measured using commercial kits (Roche Diagnostics) on the Cobas c 501 autoanalyzer according to the manufacturer's instructions.

[7] = test system: liver genes involved in inflammation, fibrogenesis, extracellular matrix formation and NASH progression; experiment: RNASeq of terminal liver samples (mRNA expression) in mouse model of NASH; format: in vivo, mice
Procedure: as §6, §8, §9, §10

[8] = 2.5% gel, topical to 10% of skin, p<0.001
[9] = 0.75% and 2.5% dose groups (group not specified), 16 animals per group, 12 weeks
[10] = conclusion, topical to 10% of BSA, dose not specified

inhibition of rat SCD-1 activity [1]: concentration-dependent inhibition
inhibition of human SCD-1 activity [2]: concentration-dependent inhibition
SMILES: O=C(COc1ccc(CO)cc1)N1CC[C@H](Oc2ccccc2C(F)(F)F)C1 [Compound 25, (S)-2-(4-(hydroxymethyl)phenoxy)-1-(3-(2-(trifluoromethyl)phenoxy)pyrrolidin-1-yl)ethan-1-one]
body adiposity (percent body weight) [3, 8]: significantly reduced
body weight (percent baseline body weight) [3, 8]: significantly reduced
total body weight or body fat ([3]; lower doses at which fibrosis changes were observed, topical): no or minimal effect
number of mice with worsening (higher score) of Fibrosis Stage ([4]; 0.25% gel, 12 weeks): 2/16
liver content (in mg) of α-SMA, antibody-stained sections ([4]; 0.25% gel, p<0.05): significantly reduced
proportion of mice exhibiting any worsening of the fibrosis stage ([4]; 0.25%, 0.75% and 2.5% gel groups, 12 weeks, placebo almost 50%): 6-12%
animals showing a higher NAS score [4, 9]: none
animals with a lower NAS score [4, 9]: 15/16
liver content of Collagen 1a1 (in mg), antibody-stained sections ([4]; 0.75% gel, 12 weeks, p<0.05): significant reduction
liver content of Picro-Sirius Red (in mg) ([4]; 0.75% gel, 12 weeks, p<0.05): significantly reduced
number of mice with worsening (higher score) of Fibrosis Stage ([4]; 0.75% gel, 12 weeks): 2/16
number of animals experiencing an improvement in NAS ([4]; 0.75% gel, 12 weeks): significantly greater
liver content (in mg) of α-SMA, antibody-stained sections ([4]; 0.75% gel, p<0.01): significantly reduced
liver Galectin-3 content (in mg), antibody-stained sections ([4]; 0.75% gel, p<0.05): significantly reduced
liver lipid content (hematoxylin and eosin-stained sections) ([4]; 0.75% gel, p<0.05): significantly reduced
liver content of Picro-Sirius Red (in mg) ([4]; 2.5% gel, 12 weeks, p<0.001): significantly reduced
liver content of Collagen 1a1 (in mg), antibody-stained sections ([4]; 2.5% gel, 12 weeks, p<0.01): significant reduction
number of mice with worsening (higher score) of Fibrosis Stage ([4]; 2.5% gel, 12 weeks): 1/16
number of animals experiencing an improvement in NAS ([4]; 2.5% gel, 12 weeks): significantly greater
liver Galectin-3 content (in mg), antibody-stained sections ([4]; 2.5% gel, p<0.001): significantly reduced
liver content (in mg) of α-SMA, antibody-stained sections ([4]; 2.5% gel, p<0.001): significantly reduced
liver lipid content (hematoxylin and eosin-stained sections) ([4]; 2.5% gel, p<0.001): significantly reduced
liver content of Collagen 1a1 (in mg), antibody-stained sections ([4]; all doses (0.05%, 0.25%, 0.75%, 2.5% gel), 12 weeks): clear trend in reduction
multiple quantitative markers of collagen (Collagen 1a1 immunohistochemistry; PSR staining; Collagen 1a1, 3a1, 4a1 mRNA) ([4]; conclusion, dose not specified): decreased
α-SMA expression (stellate cell activation) ([4]; conclusion, dose not specified): decreased
fibrosis stage [4, 10]: prevented worsening
hepatic steatosis [4, 10]: improved
inflammation [4, 10]: decreased
overall NAFLD Activity Score or NAS [4, 10]: improved
liver triglyceride content [5]: significantly reduced
plasma alanine transaminase (ALT) (units/L) ([6]; 0.75% gel): reduction
plasma aspartate transaminase (AST) (units/L) ([6]; 0.75% gel): reduction
plasma alanine transaminase (ALT) (units/L) ([6]; 2.5% gel): reduction
plasma aspartate transaminase (AST) (units/L) ([6]; 2.5% gel): reduction
serum ALT and AST ([6]; conclusion, after topical dosing, dose not specified): marked decrease
liver Galectin-3 mRNA ([7]; 2.5% gel): Reduced
liver mRNA expression of genes associated with NASH progression and poor prognosis ([7]; 2.5% gel, Aldh8a1, Aldh7a1, Annexin A2, CD36, CNBP, CIDEC, Cyclin D1, Fasn, Hsbp1, KIF6, Nfe212, Perilipin 2): significant regulation
liver mRNA expression of genes involved in hepatic inflammation ([7]; 2.5% gel, Chemokine Ligand 2, Chemokine Ligand 5, Epithelial Cell Adhesion Protein, Cluster of Differentiation 68, Integrin X): significantly downregulated
liver mRNA expression of genes involved in NASH fibrogenesis and extracellular matrix formation ([7]; 2.5% gel, Monocyte Chemoattractant Protein-1, Osteonectin, α-SMA, Collagen 1a1, Collagen 3a1, Collagen 4a1): significantly downregulated
candidate genes whose expression may be predictive for poor outcomes like liver cirrhosis and cancer ([7]; conclusion, dose not specified): favorably regulated
